# Experimental data: US7098247B2, “Arylene-carboxylic acid (2-amino-phenyl)-amide derivatives” (Hoffmann-La Roche Inc., priority 2002, dated 2006)
# System: histone deacetylase (HDAC)
# Assay: cellular acetylation assay (acetylation of histones monitored in PC3 cells, ELISA)
# Type: cell-based
# Conditions: PC3 human prostate carcinoma cells; compound 1 uM; 24 h incubation; antibodies against acetylated histone H3 or H4
# Description: Therein, acetylation of histones is monitored in PC3 cells. High acetylation means inhibition of histone deacetylase by compounds. Cell viability is monitored in parallel to estimate the cytotoxicity of the compounds.
# PC3 cells, human prostate carcinoma cells, are seeded as 1800 cells per well of 384-well microtiterplate in RPMI 1640 (including 5% FCS, 2 mM glutamine and pen/strep). After 48 h at 37° C., pre-diluted compounds are added at a final concentration of 1 uM. Compounds are pre-diluted 1:10 in dimethyl sulfoxide (DMSO) or medium resulting in a final concentration of DMSO of 0.5%.
# After 24 h, incubation the cell viability is determined by adding cell proliferation reagent WST1. Another 60 min. later, the optical density (OD) is measured (450 nm versus 690 nm).
# After WST1 assay, the cell layer is prepared for the ELISA reaction. Medium is aspirated and cells are fixed in ethanol at −20° C. for 60 min. After washing with PBS/Tween, the blocking solution (PBS/ 5% FCS/Tween) is added and the cell layer is washed again. Antibodies against histone H3 or H4 (Anti-Acetylated Histone (rabbit polyclonal IgG), Upstate Biotechnologie) are added at a dilution of 1:200 for 60 min at 37° C. As a second antibody, goat anti-rabbit IgG(H+L) human IgG adsorbed-HRP conjugate (Dako) is used (1:2000 diluted). Cells are washed 3 times and the peroxidase substrate ABTS is allowed to react for 30–60 min at 37° C. Oxalic acid stops the reaction, and the OD is measured at 405 nm.
# The percentage of acetylation is calculated after subtraction of blank O.D.s: […]
row,Compound,"cell acetylation (PC3, 1 μM) [% of control]"
1,"CC(=O)Nc1ccc(C(=O)Nc2ccccc2N)cc1 [CI 994, reference compound]",152 % of control
2,"Nc1ccccc1NC(=O)c1ccc(CNC(=O)C2CCCC2)s1 [Example 4-1, 5-[(Cyclopentanecarbonyl-amino)-methyl]-thiophene-2-carboxylic acid (2-amino-phenyl)-amide]",170 % of control
3,"CCOCC(=O)NCc1ccc(C(=O)Nc2ccccc2N)s1 [Example 4-3, 5-[(2-Ethoxy-acetylamino)-methyl]-thiophene-2-carboxylic acid (2-amino-phenyl)-amide]",194 % of control
4,"CCCC(=O)NCc1ccc(C(=O)Nc2ccccc2N)s1 [Example 4-6, 5-(Butyrylamino-methyl)-thiophene-2-carboxylic acid (2-amino-phenyl)-amide]",238 % of control
5,"Nc1ccccc1NC(=O)c1ccc(CNC(=O)CC2C=CCC2)cc1 (stereo not drawn) [Example 4-31, N-(2-Amino-phenyl)-4-[(2-cyclopent-2-enyl-acetylamino)-methyl]-benzamide]",176 % of control
6,"CCC(C)CNC(=O)NCc1ccc(C(=O)Nc2ccccc2N)s1 (stereo not drawn) [Example 6-8, 5-[3-(2-Methyl-butyl)-ureidomethyl]-thiophene-2-carboxylic acid (2-amino-phenyl)-amide]",198 % of control
7,"C=CCNC(=O)NCc1ccc(C(=O)Nc2ccccc2N)s1 [Example 6-12, 5-[(3-Allyl-ureido)-methyl]-thiophene-2-carboxylic acid (2-amino-phenyl)-amide]",170 % of control
8,"CC(C)CNC(=O)NCc1ccc(C(=O)Nc2ccccc2N)s1 [Example 6-13, 5-(3-Isobutyl-ureidomethyl)-thiophene-2-carboxylic acid (2-amino-phenyl)-amide]",178 % of control
9,"CN(C)CC(C)(C)CNC(=O)NCc1ccc(C(=O)Nc2ccccc2N)cc1 [Example 6-19, N-(2-Amino-phenyl)-4-[3-(3-dimethylamino-2,2-dimethyl-propyl)-ureidomethyl]-benzamide]",205 % of control
10,"CCCCCC(C)NC(=O)NCc1ccc(C(=O)Nc2ccccc2N)cc1 (stereo not drawn) [Example 6-25, N-(2-Amino-phenyl)-4-[3-(1-methyl-hexyl)-ureidomethyl]-benzamide]",192 % of control
11,"CCOCCCNC(=O)NCc1ccc(C(=O)Nc2ccccc2N)cc1 [Example 6-26, N-(2-Amino-phenyl)-4-[3-(3-ethoxy-propyl)-ureidomethyl]-benzamide]",179 % of control
12,"C=CCNC(=O)NCc1ccc(C(=O)Nc2ccccc2N)cc1 [Example 6-27, 4-[(3-Allyl-ureido)-methyl]-N-(2-amino-phenyl)-benzamide]",175 % of control
13,"CC(C)OCCCNC(=O)NCc1ccc(C(=O)Nc2ccccc2N)cc1 [Example 6-28, N-(2-Amino-phenyl)-4-[3-(3-isopropoxy-propyl)-ureidomethyl]-benzamide]",177 % of control
14,"Nc1ccccc1NC(=O)c1ccc(CNC(=O)NCC2CC2)cc1 [Example 6-29, N-(2-Amino-phenyl)-4-(3-cyclopropylmethyl-ureidomethyl)-benzamide]",187 % of control
15,"CCCCCNC(=O)NCc1ccc(C(=O)Nc2ccccc2N)cn1 [Example 6-38, N-(2-Amino-phenyl)-6-[(3-pentyl-ureido)-methyl]-nicotinamide]",178 % of control
